Data set [1] has as its system brain dopamine/norepinephrine ratio. Briefly: Dopamine/norepinephrine ratios in the brain of rodents. Particulars: in vivo. As to the method:
Dopamine/norepinephrine ratios in the brain of rodents treated with nepicastat were determined. Dopamine/norepinephrine ratios increased in the brains of rodents treated with nepicastat or disulfuram.

The subject of data set [2] is conscious, restrained SHRs. The data set is described as follows: Hemodynamic study in conscious, restrained SHRs. Format: in vivo, spontaneously hypertensive rats. As to the method: The in vivo hemodynamic activity of nepicastat was further assessed in conscious, restrained SHRs, a model having high sympathetic drive to cardiovascular tissues. Hemodynamic study in SHRs. Male SHRs (15-16 week old) were used in the study. The animals were lightly anesthetized with ether and the left femoral artery and vein were catheterized for measurement of blood pressure and drug administration, respectively. The animals were placed in restrainers and allowed to recover for 30-40 min. After obtaining baseline measurements, the animals were treated, orally, with either vehicle or the appropriate dose of nepicastat and hemodynamic parameters were continuously recorded for 4 h. The animals were then anesthetized with pentobarbital, placed on a heating pad (37° C.) and ventilated with a Harvard rodent ventilator. After administration of atropine (1 mg/kg, iv) and tubocurarine (1 mg/kg, iv), the animals were pithed through the orbit of the eye with a stainless steel rod. The […] rod was stimulated electrically with 1 ms pulses of 80V at different frequencies (0.15, 0.45, 1.5, 5, 15 Hz) to obtain frequency-pressor response curves. […] The animals were placed in restrainers and allowed to recover for 30-40 minutes. After obtaining baseline measurements, the animals were treated, orally, with either vehicle or the appropriate dose of nepicastat and hemodynamic parameters were continuously recorded for 4 h.

Data set [3] concerns tissue norepinephrine and dopamine levels. The data set is described as follows: Tissue catecholamines in Sprague-Dawley rats after single oral dose. Format: in vivo. As to the method: In SHRs there were significant changes in the dopamine/norepinephrine ratio in the mesenteric artery at doses of 0.3 mg/kg, in the left ventricle at 3.0 mg/kg, and in the cerebral cortex at 10 mg/kg. […] In a second dose-response study in SHRs, three doses were administered 12 hours apart at either 3.0, 10, 30, or 100 mg/kg, and tissue was harvested six hours after the third dose. Nepicastat caused a significant dose dependent decrease in norepinephrine (10 mg/kg) and increase in dopamine (3.0 mg/kg) and the dopamine/norepinephrine ratio (3.0 mg/kg) in the left ventricle and mesenteric artery. The effects of nepicastat on dopamine and norepinephrine concentrations, and the dopamine/norepinephrine ratio in the cerebral cortex were significant only at 30 and 100 mg/kg.

In data set [4] the target is 5-HT2A serotonin receptors (Homo sapiens, UniProt P28223). The data set is described as follows: Radioligand binding assay. On the procedure:
(§1) The activity of nepicastat at twelve selected enzymes and receptors was determined using established assays. Binding data were analyzed by iterative curve-fitting to a four parameter logistic equation. Ki values were calculated from IC50 values using the Cheng-Prusoff equation. Enzyme inhibitory activity was expressed as IC50 (concentration required to produce 50% inhibition of enzyme activity).
(§2) The activity of nepicastat at eleven different enzymes was determined using established assays. The affinity of nepicastat for thirteen selected receptors was determined by radioligand binding assays using standard filtration techniques and membrane preparations. Binding data were analyzed by iterative curve fitting to a four parameter logistic equation. Ki values were calculated using the Cheng-Prusoff equation.
(§3) The binding affinity for nepicastat was screened at selected receptors. […] Thus nepicastat and its primary metabolite were not potent inhibitors for the receptors listed above.

The target in a further data set is D1 dopamine receptors (Homo sapiens, UniProt P21728). The data set is described as follows: Radioligand binding assay. As to the method: as §1, §2, §3
The next data set deals with M1 muscarinic receptors (Homo sapiens, UniProt P11229). Briefly: Radioligand binding assay. On the procedure:
as §1, §2, §3

For data set [5], the target named is 5-HT2C serotonin receptors (Homo sapiens, UniProt P28335). The data set is described as follows: Radioligand binding assay. On the procedure:
as §1, §2, §3

Data set [6] addresses 5-HT1A serotonin receptors (Homo sapiens, UniProt P08908). The data set is described as follows: Radioligand binding assay. As to the method: as §1, §2, §3
In a further data set the target is D2 dopamine receptors (Homo sapiens, UniProt P14416). The data set is described as follows: Radioligand binding assay. On the procedure:
as §1, §2, §3

Data set [7] relates to blood pressure responses to norepinephrine, isoproterenol and acetylcholine. The data set is described as follows: Responses to autonomic agents in anesthetized, instrumented dogs. Format: in vivo, beagle dogs. Particulars: single intraduodenal dose of 60 mg/kg. As to the method:
Beagle dogs were administered single intraduodenal doses of 0 (vehicle) or 60 mg/kg of nepicastat through an intraduodenal cannula. The vehicle-control group consisted of 1 male and 1 female, and the nepicastat-treatment group consisted of 2 males and 2 females. Each animal was surgically instrumented while anesthetized with isoflurane gas. Before dosing with test formulation, the average blood pressure responses to intravenous doses of autonomic agents, norepinephrine (3 μg/kg), isoproterenol (0.3 μg/kg), and acetylcholine (10 μg/kg), were evaluated. A single bolus dose of test formulation was then administered to each animal and the blood pressure responses to the autonomic agents were evaluated approximately 1, 2, and 3 hours after dosing. At the completion of the experiment, each dog was euthanatized and removed from the study. […]
Systolic, diastolic, and mean aortic blood pressures were evaluated just before administration (baseline) and at the time of peak response to each agent (maximum change from baseline). Systolic, diastolic, and mean aortic blood pressures, and blood pH, PCO2, and PO2 were evaluated before dosing and approximately 50, 110, and 170 minutes after dosing with test formulation. […]

“Also recorded” adds a separate entry of the source.

5-HT1A serotonin receptors, sequence (P08908 whole entry): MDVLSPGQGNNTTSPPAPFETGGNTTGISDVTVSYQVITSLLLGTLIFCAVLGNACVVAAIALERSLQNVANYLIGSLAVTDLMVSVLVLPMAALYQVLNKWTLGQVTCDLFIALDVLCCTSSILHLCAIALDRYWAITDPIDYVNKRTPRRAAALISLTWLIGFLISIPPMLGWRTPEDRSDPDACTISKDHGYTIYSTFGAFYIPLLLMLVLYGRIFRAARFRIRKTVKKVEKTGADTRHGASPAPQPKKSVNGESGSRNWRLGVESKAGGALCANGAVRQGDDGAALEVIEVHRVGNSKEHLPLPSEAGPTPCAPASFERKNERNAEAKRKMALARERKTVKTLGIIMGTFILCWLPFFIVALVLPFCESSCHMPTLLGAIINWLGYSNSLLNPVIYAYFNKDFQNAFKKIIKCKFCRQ
D2 dopamine receptors, sequence (P14416 whole entry): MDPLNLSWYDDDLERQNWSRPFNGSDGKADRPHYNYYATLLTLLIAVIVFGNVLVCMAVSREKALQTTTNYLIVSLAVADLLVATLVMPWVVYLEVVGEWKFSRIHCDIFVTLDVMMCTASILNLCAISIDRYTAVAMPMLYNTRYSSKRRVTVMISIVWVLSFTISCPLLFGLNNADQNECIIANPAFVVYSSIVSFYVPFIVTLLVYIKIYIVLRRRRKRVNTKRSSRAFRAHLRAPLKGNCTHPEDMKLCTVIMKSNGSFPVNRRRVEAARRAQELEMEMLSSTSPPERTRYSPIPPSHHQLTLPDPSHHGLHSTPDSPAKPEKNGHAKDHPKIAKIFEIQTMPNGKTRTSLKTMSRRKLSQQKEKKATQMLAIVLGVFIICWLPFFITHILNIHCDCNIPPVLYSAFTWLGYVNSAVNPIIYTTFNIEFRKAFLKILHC
D1 dopamine receptors, sequence (P21728 whole entry): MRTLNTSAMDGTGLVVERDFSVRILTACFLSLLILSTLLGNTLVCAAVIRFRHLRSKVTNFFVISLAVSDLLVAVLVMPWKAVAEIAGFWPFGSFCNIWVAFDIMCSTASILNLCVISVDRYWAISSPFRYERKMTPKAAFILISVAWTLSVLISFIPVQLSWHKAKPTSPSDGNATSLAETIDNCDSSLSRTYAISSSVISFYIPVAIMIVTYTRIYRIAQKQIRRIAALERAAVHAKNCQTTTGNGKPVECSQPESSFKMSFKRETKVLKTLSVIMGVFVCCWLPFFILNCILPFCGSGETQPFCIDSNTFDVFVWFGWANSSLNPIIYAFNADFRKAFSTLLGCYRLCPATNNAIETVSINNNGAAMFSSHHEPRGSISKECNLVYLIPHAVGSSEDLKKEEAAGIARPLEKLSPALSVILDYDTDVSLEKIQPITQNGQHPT
5-HT2A serotonin receptors, sequence (P28223 whole entry): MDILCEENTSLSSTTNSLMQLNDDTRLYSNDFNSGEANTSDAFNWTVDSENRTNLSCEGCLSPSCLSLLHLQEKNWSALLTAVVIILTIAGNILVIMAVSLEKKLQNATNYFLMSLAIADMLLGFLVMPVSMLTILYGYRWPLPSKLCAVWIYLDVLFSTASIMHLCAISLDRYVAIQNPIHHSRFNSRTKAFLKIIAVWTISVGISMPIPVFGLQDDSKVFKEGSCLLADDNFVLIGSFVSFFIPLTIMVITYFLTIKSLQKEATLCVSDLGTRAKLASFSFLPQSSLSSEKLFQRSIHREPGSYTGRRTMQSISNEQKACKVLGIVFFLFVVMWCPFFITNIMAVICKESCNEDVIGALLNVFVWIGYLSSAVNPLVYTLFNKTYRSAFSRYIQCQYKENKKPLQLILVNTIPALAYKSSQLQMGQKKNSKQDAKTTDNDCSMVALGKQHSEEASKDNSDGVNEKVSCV
5-HT2C serotonin receptors, sequence (P28335 33-458): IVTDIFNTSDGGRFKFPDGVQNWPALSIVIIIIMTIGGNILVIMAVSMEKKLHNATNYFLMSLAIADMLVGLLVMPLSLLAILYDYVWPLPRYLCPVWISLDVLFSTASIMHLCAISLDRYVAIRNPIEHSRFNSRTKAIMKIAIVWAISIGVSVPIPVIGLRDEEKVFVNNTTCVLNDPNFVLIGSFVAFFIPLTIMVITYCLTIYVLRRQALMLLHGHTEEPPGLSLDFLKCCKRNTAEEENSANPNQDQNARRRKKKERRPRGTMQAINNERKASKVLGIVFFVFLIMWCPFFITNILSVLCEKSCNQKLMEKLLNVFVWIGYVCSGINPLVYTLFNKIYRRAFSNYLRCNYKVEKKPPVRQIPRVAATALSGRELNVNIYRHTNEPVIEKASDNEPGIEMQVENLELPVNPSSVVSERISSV
M1 muscarinic receptors, sequence (P11229 whole entry): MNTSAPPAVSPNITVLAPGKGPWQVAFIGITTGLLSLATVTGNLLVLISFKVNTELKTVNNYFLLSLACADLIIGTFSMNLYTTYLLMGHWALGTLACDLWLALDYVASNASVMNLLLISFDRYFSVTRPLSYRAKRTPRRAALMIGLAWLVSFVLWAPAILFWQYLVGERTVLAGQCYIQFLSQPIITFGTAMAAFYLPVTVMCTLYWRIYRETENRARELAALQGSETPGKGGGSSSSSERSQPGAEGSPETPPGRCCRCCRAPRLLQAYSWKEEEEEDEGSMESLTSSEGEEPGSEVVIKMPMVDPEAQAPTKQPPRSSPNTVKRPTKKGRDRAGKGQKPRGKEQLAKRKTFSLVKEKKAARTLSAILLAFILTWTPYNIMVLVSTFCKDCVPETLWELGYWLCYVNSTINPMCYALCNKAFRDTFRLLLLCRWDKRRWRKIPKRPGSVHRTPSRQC

Turning to `Cl.NCc1c[nH]c(=S)n1[C@H]1CCc2c(F)cc(F)cc2C1` [nepicastat, (S)-5-Aminomethyl-1-(5,7-difluoro-1,2,3,4-tetrahydronaphth-2-yl)-2,3-dihydro-2-thioxo-1H-imidazole hydrochloride], the “dopamine/norepinephrine ratios in the brain” value in data set [1] was “increased”. Besides, the “decrease in heart rate” value worked out at 9.8% in data set [2] (10 mg/kg) and 10.5% in [2] (30 mg/kg). Further, the “maximal decrease in mean blood pressure” value in [2] (10 mg/kg po) is listed as 53±4 mmHg. Also, in data set [2] (10 mg/kg po), the “reduction in mean blood pressure relative to vehicle control” value is listed as 33%. The “decrease in blood pressure 4 hours after dosing” value in data set [2] (10 mg/kg, SHRs) was −46 mmHg. In addition, the “effect on mean arterial pressure” value in data set [2] (0.3-30 mg/kg po, up to 4 h, hydrochloride) was “significant (p<0.05) lowering of mean arterial pressure; also recorded: significant antihypertensive effect”. Besides, the “effect on heart rate” value in data set [2] (10 and 30 mg/kg po) is recorded as “significantly reduced heart rate”. For the same compound, the “duration of antihypertensive effects” value in data set [2] (acute oral administration) is given as above 4 h. Also, the “time to plateau of the antihypertensive response” value in [2] (po) is 3 to 4 h. The “dose with significant increase in dopamine/norepinephrine ratio” value worked out at 100 mg/kg in data set [3] (cerebral cortex, only at this dose); 1.0 mg/kg in data set [3] (left ventricle, 6 h after single oral dose); 3.0 mg/kg in data set [3] (mesenteric artery, 6 h after single oral dose). For the same compound, the Ki (in [4]; at D1 dopamine receptors; on M1 muscarinic receptors; in [5]; in data set [6]; on D2 dopamine receptors) was above 10 µM throughout. The “predose vs postdose blood pressure responses to autonomic agents” value in data set [7] is given as “No treatment-related differences”.

Values taken from patent publication US10561638B2, “Methods for treating dependence” (Biotie Therapies, Inc., priority 2007, dated 2020).
